How the values were obtained:
[1] = test system: SW1271 lung cancer cell line; experiment: Cell viability assay (ATP quantitation); format: cell-based; conditions: 50 nM, 5 days, vs non-targeting control
Method in brief: (§1)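 Transfection used Lipofectamine 3000 with 50 nM final oligonucleotide unless otherwise specified; MEKi was added for combination work. Plates were read for total luminescence at day 3 (synergy) or day 5 (ASO only).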

[2] = test system: H82 lung cancer cell line; experiment: Cell viability assay (ATP quantitation); format: cell-based; conditions: 50 nM, 5 days, vs non-targeting control
Method in brief: as §1

[3] = test system: T98G Glioblastoma cell line; experiment: Cell viability assay (ATP quantitation); format: cell-based; conditions: 50 nM, 5 days, vs non-targeting control
Method in brief: as §1

[4] = test system: HCT116 colon carcinoma cell line; experiment: Cell viability assay (ATP quantitation); format: cell-based; conditions: 50 nM, 5 days, vs non-targeting control
Method in brief: as §1

[5] = test system: LS174 colon carcinoma cell line; experiment: Cell viability assay (ATP quantitation); format: cell-based; conditions: 50 nM, 5 days, vs non-targeting control
Method in brief: as §1

[6] = test system: U138-MG Glioblastoma cell line; experiment: Cell viability assay (ATP quantitation); format: cell-based; conditions: 50 nM, 5 days, vs non-targeting control
Method in brief: as §1

[7] = test system: U20S osteosarcoma cell line; experiment: Cell viability assay (ATP quantitation); format: cell-based; conditions: 50 nM, 5 days, vs non-targeting control
Method in brief: as §1

AV4 melanoma cell line = experiment: Cell viability assay (ATP quantitation); format: cell-based; conditions: 50 nM, 5 days, vs non-targeting control
Method in brief: as §1

[8] = test system: U87-MG Glioblastoma cell line; experiment: Cell viability assay (ATP quantitation); format: cell-based; conditions: 50 nM, 5 days, vs non-targeting control
Method in brief: as §1

[9] = test system: Hs940.T melanoma cell line; experiment: Cell viability assay (ATP quantitation); format: cell-based; conditions: 50 nM, 5 days, vs non-targeting control
Method in brief: as §1

[10] = test system: MaMel30 melanoma cell line; experiment: Cell viability assay (ATP quantitation); format: cell-based; conditions: 50 nM, 5 days, vs non-targeting control
Method in brief: as §1

[11] = test system: H2228 lung cancer cell line; experiment: Cell viability assay (ATP quantitation); format: cell-based; conditions: 50 nM, 5 days, vs non-targeting control
Method in brief: as §1

[12] = test system: Sk-N-AS Neuroblastoma cell line; experiment: Cell viability assay (ATP quantitation); format: cell-based; conditions: 50 nM, 5 days, vs non-targeting control
Method in brief: as §1

[13] = test system: H1299 lung cancer cell line; experiment: Cell viability assay (ATP quantitation); format: cell-based; conditions: 50 nM, 5 days, vs non-targeting control
Method in brief: as §1

[14] = test system: H929 multiple myeloma cell line; experiment: Cell viability assay (ATP quantitation); format: cell-based; conditions: 50 nM, 5 days, vs non-targeting control
Method in brief: as §1

[15] = test system: SW480 colon carcinoma cell line; experiment: Cell viability assay (ATP quantitation); format: cell-based; conditions: 50 nM, 5 days, vs non-targeting control
Method in brief: as §1

[16] = test system: WM3060 melanoma cell line; experiment: Cell viability assay (ATP quantitation); format: cell-based; conditions: 50 nM, 5 days, vs non-targeting control
Method in brief: as §1

[17] = test system: A-172 Glioblastoma cell line; experiment: Cell viability assay (ATP quantitation); format: cell-based; conditions: 50 nM, 5 days, vs non-targeting control
Method in brief: as §1

[18] = test system: Sk-Mel-5 melanoma cell line; experiment: Cell viability assay (ATP quantitation); format: cell-based; conditions: 50 nM, 5 days, vs non-targeting control
Method in brief: as §1

[19] = test system: hepatocellular carcinoma cell line HepG2; experiment: Cell viability assay (ATP quantitation); format: cell-based; conditions: 50 nM, 120 hrs, Lipofectamine3000 2 ul/ml, vs non-targeting control ASO
[20] = test system: sarcoma cell line SK-LMS-1; experiment: Cell viability assay (ATP quantitation); format: cell-based; conditions: SK-LMS-1 sarcoma; 50 nM, 120 hrs; Lipofectamine3000 2 ul/ml; vs non-targeting control ASO
Caspase 3+7 = experiment: Caspase Glo 3/7 assay in D04 cell line; format: cell-based, human; conditions: ASO 50 nM, 1 day, vs control ASOs
Experimental: Dependent on cell doubling time, 2-3×10^^3 cells were seeded in 96 well plates. 1 day after seeding cells were incubated in media with 50 nM oligonucleotide concentration and transfection reagent. 1 day after transfection Total luminescence was measured on the SynergyHT plate reader (BioTek) using Gen5 software. Experiments were performed in quadruplicates.

In the case of “GACTGGAGATAATTAA (gapmer, pattern not given here) [SEQ ID NO: 15, GapmeR ASO targeting AC004540.4 (TRASH), exon region of both isoforms; used for in vitro experiments]”, the cell viability decrease [1] is reported as “significant cell viability decrease”, the cell viability decrease [2] is reported as “significant cell viability decrease” and the cell viability decrease [3] is reported as “significant cell viability decrease”. For the same sequence, the cell viability decrease [4] was “significant cell viability decrease”, the cell viability decrease [5] was “significant cell viability decrease” and the cell viability decrease [6] was “significant cell viability decrease”. The cell viability decrease [7] was “significant cell viability decrease”, the cell viability decrease (AV4 melanoma cell line) was “significant cell viability decrease” and the cell viability decrease [8] was “significant cell viability decrease”. For the same sequence, the cell viability decrease [9] was “significant cell viability decrease”, the cell viability decrease [10] was “significant cell viability decrease” and the cell viability decrease [11] was “significant cell viability decrease”. The cell viability decrease [12] was “significant cell viability decrease”, the cell viability decrease [13] was “significant cell viability decrease” and the cell viability decrease [14] was “significant cell viability decrease”. For the same sequence, the cell viability decrease [15] was “significant cell viability decrease”, the cell viability decrease [16] was “significant cell viability decrease” and the cell viability decrease [17] was “significant cell viability decrease”. For the same sequence, the cell viability decrease [18] was “significant cell viability decrease”, the cell viability decrease [19] was “significant cell viability decrease” and the cell viability decrease [20] was “significant cell viability decrease”. For the same sequence, the “Caspase-3 &-7 activity increase” value (Caspase 3+7) was 3.0 fold.

— patent US20250197864A1, “LNCRNA TRANSCRIPTS IN MELANOMAGENESIS” (The Regents of the University of California, priority 2021, published 2025)
